Consider 15 compounds from US12240862B2, “Inhibitors of peptidylarginine deiminases” (Gilead Sciences, Inc., priority 2020, dated 2025).

One may read the IC50 as the point on the concentration scale where inhibition reaches its midpoint.

In this assay the target is T1, human PAD4 (Homo sapiens, UniProt Q9UM07).
T1 construct: human PAD4 (NM_012387), A2P663, was PCR amplified; His-SUMO (N, cleaved yes); made in house; host or cells: E. coli BL21(DE3)
T1 sequence (Q9UM07 2-663): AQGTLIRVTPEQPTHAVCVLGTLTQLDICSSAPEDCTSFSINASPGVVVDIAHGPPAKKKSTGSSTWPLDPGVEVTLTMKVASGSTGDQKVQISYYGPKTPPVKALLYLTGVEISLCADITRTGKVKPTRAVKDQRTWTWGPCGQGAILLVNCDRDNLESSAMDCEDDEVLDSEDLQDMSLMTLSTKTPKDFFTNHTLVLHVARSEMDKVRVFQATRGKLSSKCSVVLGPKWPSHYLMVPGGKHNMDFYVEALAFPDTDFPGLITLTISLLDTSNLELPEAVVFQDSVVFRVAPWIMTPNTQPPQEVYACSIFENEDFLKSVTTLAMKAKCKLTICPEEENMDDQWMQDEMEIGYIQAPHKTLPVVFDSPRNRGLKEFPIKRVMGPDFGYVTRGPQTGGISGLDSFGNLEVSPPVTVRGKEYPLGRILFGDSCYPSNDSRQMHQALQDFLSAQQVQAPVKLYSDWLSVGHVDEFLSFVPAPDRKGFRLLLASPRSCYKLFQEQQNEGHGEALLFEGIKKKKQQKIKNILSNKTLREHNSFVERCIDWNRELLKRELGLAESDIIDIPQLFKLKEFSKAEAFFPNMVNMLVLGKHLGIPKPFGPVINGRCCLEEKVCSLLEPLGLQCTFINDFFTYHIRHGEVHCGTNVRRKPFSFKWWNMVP
Put plainly: In vitro PAD4 BAEE biochemical assay. As to conditions: human PAD4, BAEE substrate; 5 nM PAD4, 2 mM calcium chloride, 3 mM BAEE; geometric mean of multiple experiments. The method, boiled down: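 Ammonia generated from BAEE serves as the readout, measured by o-phthalaldehyde after EDTA termination. Final conditions: 5 nM human PAD4 (SUMO tag cleaved), 2 mM CaCl2, 3 mM BAEE, pH 7.6 MOPS buffer, 25 °C for 2 h following a 30-min compound preincubation.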
For the compound `CCN(c1ccc2cc(-c3nc4cc(C(=O)N5[C@H]6CC[C@@H]5[C@H](N)C6)cc(OC)n4c3C)n(CC3CC3)c2n1)S(C)(=O)=O` [Example 475, ~{N}-[2-[7-[(1~{R},2~{R}, 4~{S})-2-amino-7-azabicyclo[2.2.1]heptane-7-carbonyl]-5-methoxy-3-methylimidazo[1,2-a]pyridin-2-yl]-1-(cyclopropylmethyl)pyrrolo [2,3-b]pyridin-6-yl]-~{N}-ethylmethanesulfonamide], the IC50 amounted to 75.1 nM.

Consider `COc1cc(C(=O)N2[C@H]3CC[C@@H]2[C@H](N)C3)cc2nc(-c3cc4ccc(N(C(F)F)S(C)(=O)=O)nc4n3CC3CC3)c(C3CC3)n12` [Example 385, ~{N}-[2-[7-[(1~{R},2~{R}, 4~{S})-2-amino-7-azabicyclo[2.2.1]heptane-7-carbonyl]-3-cyclopropyl-5-methoxyimidazo[1,2-a]pyridin-2-yl]-1-(cyclopropylmethyl)pyrrolo [2,3-b]pyridin-6-yl]-~{N}-(difluoromethyl) methanesulfonamide], for which the IC50 amounted to 156 nM.

`CCc1ccc2cc(-c3nc4cc(C(=O)N5CCC6(CC6)[C@@H](N)C5)cc(OC)n4c3C)n(CC3CC3)c2n1` [Example 592, [(8~{R})-8-amino-6-azaspiro[2.5]octan-6-yl]-[2-[1-(cyclopropylmethyl)-6-ethylpyrrolo[2,3-b]pyridin-2-yl]-5-methoxy-3-methylimidazo[1,2-a]pyridin-7-yl]methanone]: the IC50 came to 9000 nM.

As for `CCc1ccc2cc(-c3nc4cc(C(=O)N5CCC[C@@H](N)C5)ccn4c3C3CC3)n(CC3CC3)c2n1` [Example 597, [(3~{R})-3-aminopiperidin-1-yl]-[3-cyclopropyl-2-[1-(cyclopropylmethyl)-6-ethylpyrrolo[2,3-b]pyridin-2-yl]imidazo[1,2-a]pyridin-7-yl]methanone], the IC50 was 299 nM.

With `COc1cc(C(=O)N2CCC[C@@H](N)C2)cc2nc(-c3cc4ccc([C@@H](C)NC(=O)OCC(C)(C)C)nc4n3CC3CC3)c(C)n12` [Example 256, 2,2-dimethylpropyl~{N}-[(1~{R})-1-[2-[7-[(3~ {R})-3-aminopiperidine-1-carbonyl]-5-methoxy-3-methylimidazo[1,2-a]pyridin-2-yl]-1-(cyclopropylmethyl)pyrrolo [2,3-b]pyridin-6-yl]ethyl] carbamate], the IC50 stood at 486 nM.

With `COc1cc(C(=O)N2[C@H]3CC[C@@H]2[C@H](N)C3)cc2nc(-c3cc4ccc([C@@H](C)NC(=O)C5CN(C(C)=O)C5)nc4n3CC3CC3)c(C)n12` [Example 149, 1-acetyl-~{N}-[(1~{R})-1-[2-[7-[(1~{R},2~{R},4~{S})-2-amino-7-azabicyclo [2.2.1]heptane-7-carbonyl]-5-methoxy-3-methylimidazo [1,2-a]pyridin-2-yl]-1-(cyclopropylmethyl)pyrrolo [2,3-b]pyridin-6-yl]ethyl] azetidine-3-carboxamide], the IC50 stood at 77 nM.

Regarding `COc1cc(C(=O)N2[C@H]3CC[C@@H]2[C@H](N)C3)cc2nc(-c3cc4ccc([C@@H](C)NC(=O)c5ccc(F)cc5F)nc4n3CC3CC3)c(C)n12` [Example 56, ~{N}-[(1~{R})-1-[2-[7-[(1~{R},2~{R}, 4~{S})-2-amino-7-azabicyclo[2.2.1]heptane-7-carbonyl]-5-methoxy-3-methylimidazo[1,2-a]pyridin-2-yl]-1-(cyclopropylmethyl)pyrrolo[2,3-b]pyridin-6-yl]ethyl]-2,4-difluorobenzamide], the IC50 was determined as 254 nM.

Consider `COc1cc(C(=O)N2CC[C@@H](O)[C@@H](N)C2)cc2nc(-c3cc4ccc([C@@H](C)NC(=O)c5ccccc5)nc4n3CC3CC3)c(C)n12` [Example 115], for which the concentration for half-maximal inhibition (IC50) is 177 nM.

As to `CCOC(=O)CCC(=O)N[C@H](C)c1ccc2cc(-c3nc4cc(C(=O)N5[C@H]6CC[C@@H]5[C@H](N)C6)cc(OC)n4c3C)n(CC3CC3)c2n1` [Example 152, ethyl 4-[[(1~{R})-1-[2-[7-[(1~{R},2~{R},4~{S})-2-amino-7-azabicyclo[2.2.1]heptane-7-carbonyl]-5-methoxy-3-methylimidazo [1,2-a]pyridin-2-yl]-1-(cyclopropylmethyl)pyrrolo [2,3-b]pyridin-6-yl]ethyl]amino]-4-oxobutanoate], the IC50 came to 63.5 nM.

As for “~{N}-[(1~{R})-1-[2-[7- [(1~{R},2~{R},4~{S})- 2-amino-7-azabicyclo [2.2.1]heptane- 7-carbonyl]-5-methoxy- 3-methylimidazo [1,2-a]pyridin-2-yl]-1- (cyclopropylmethyl) pyrrolo[2,3-b]pyridin- 6-ylethyl]-2,2- dimethylcyclopropane- 1-carboxamide [Example 70]”, the IC50 is 63.2 nM.

For the compound `COc1cc(C(=O)N2[C@H]3CC[C@@H]2[C@H](N)C3)cc2nc(-c3cc4ccc([C@@H](C)NC(=O)c5ncco5)nc4n3CC3CC3)c(C)n12` [Example 73, ~{N}-[(1~{R})-1-[2-[7-[(1~{R},2~{R},4~{S})-2-amino-7-azabicyclo[2.2.1]heptane-7-carbonyl]-5-methoxy-3-methylimidazo [1,2-a]pyridin-2-yl]-1-(cyclopropylmethyl)pyrrolo [2,3-b]pyridin-6-yl]ethyl]-1,3-oxazole-2-carboxamide], the IC50 worked out at 38.7 nM.

`COc1cc(C(=O)N2[C@H]3CC[C@@H]2[C@H](N)C3)cc2nc(-c3cc4ccc([C@@H](C)NC(=O)C56CC(C#N)(C5)C6)nc4n3CC3CC3)c(C)n12` [Example 158, ~{N}-[(1~{R})-1-[2-[7-[(1~{R},2~{R},4~{S})-2-amino-7-azabicyclo[2.2.1]heptane-7-carbonyl]-5-methoxy-3-methylimidazo [1,2-a]pyridin-2-yl]-1-(cyclopropylmethyl)pyrrolo [2,3-b]pyridin-6-yl]ethyl]-3-cyanobicyclo[1.1.1]pentane-1-carboxamide]: the IC50 amounted to 73.8 nM.

Consider `COc1cc(C(=O)N2[C@H]3CC[C@@H]2[C@H](N)C3)cc2nc(-c3cc4ccc(N5CCCOC5=O)nc4n3CC3CC3)c(C)n12` [Example 464, 3-[2-[7-[(1~{R},2~{R}, 4~{S})-2-amino-7-azabicyclo[2.2.1]heptane-7-carbonyl]-5-methoxy-3-methylimidazo[1,2-a]pyridin-2-yl]-1-(cyclopropylmethyl)pyrrolo [2,3-b]pyridin-6-yl]-1,3-oxazinan-2-one], for which the IC50 was determined as 100 nM.

On to `COc1cc(C(=O)N2CCC[C@@H](N)C2)cc2nc(-c3cc4ccc(N(C(F)F)S(C)(=O)=O)nc4n3CC3CC3)c(C3CC3)n12` [Example 391, ~{N}-[2-[7-[(3~{R})-3-aminopiperidine-1-carbonyl]-3-cyclopropyl-5-methoxyimidazo [1,2-a]pyridin-2-yl]-1-(cyclopropylmethyl)pyrrolo [2,3-b]pyridin-6-yl]-~{N}-(difluoromethyl) methanesulfonamide], for which the IC50 is 104 nM.

Turning to `COc1cc(C(=O)N2[C@H]3CC[C@@H]2[C@H](N)C3)cc2nc(-c3cc4ccc([C@@H](C)N5CCCC5)nc4n3CC3CC3)c(C)n12` [Example 272, [(1~{R},2~{R},4~{S})-2-amino-7-azabicyclo [2.2.1]heptan-7-yl]-[2-[1-(cyclopropylmethyl)-6-[(1~{R})-1-pyrrolidin-1-ylethyl]pyrrolo[2,3-b]pyridin-2-yl]-5-methoxy-3-methylimidazo[1,2-a]pyridin-7-yl]methanone], the IC50 came to 134 nM.
